Measurements taken from patent publication US20050245399A1, “Pyrazole derivatives as herbicidal compositions containing them” (ISHIHARA SANGYO KAISHA, LTD., priority 2004, published 2005).

Experiments:
Type in all cases: in vivo
Conditions in all cases: visually observed 20th to 23rd day after application
[1] = tested on: soybean (Glycine max Merr.): GLXMA; test: Test Example 1 pre-emergence herbicidal activity, GLXMA
From the text: (§1) Upland field soil was put into a 1/170,000 ha pot, and seeds of various plants {1. barnyardgrass (Echinochloa crus-galli L.): ECHCG, 2. crabgrass (Digitaria sanguinalis L.): DIGSA, 3. green foxtail (Setaria viridis L.): SETVI, 4. redroot pigweed (Amaranthus retroflexus L.): AMARE, 5. prickly sida (Sida spinosa L.): SEDSP, 6. velvetleaf (Abutilon theophrasti): ABUTH, 7. common cocklebur (Xanthium strumarium L.): XANST, 8. rice (Oryza sativa L.): ORYSA, 9. wheat (Triticum aestivum L.): TRZAX, 10. corn (Zea mays L.): ZEAMX, 11. soybean (Glycine max Merr.): GLXMA} were sown. Then, one day after the sowing, a wettable powder or emulsifiable concentrate having the compound of the present invention formulated in accordance with a usual formulation method, was weighed so that the active ingredient would be a predetermined amount and diluted with water in an amount of 500 L/ha. The herbicide adjusted was applied by a small size sprayer for preemergence treatment. On the 20th to 23rd day after the application of the herbicide, the growth of the respective plants was visually observed, and the herbicidal effects were evaluated by growth controlling degrees (%) ranging from 0 (equivalent to the untreated control) to 100 (complete kill), whereby the results shown in Table 4, were obtained. Compound Nos. in Table 4 correspond to Compound Nos. in Table 1 and 2 given hereinbefore.

[2] = tested on: crabgrass (Digitaria sanguinalis L.): DIGSA; test: Test Example 1 pre-emergence herbicidal activity, DIGSA
From the text: as §1

[3] = tested on: redroot pigweed (Amaranthus retroflexus L.): AMARE; test: Test Example 1 pre-emergence herbicidal activity, AMARE
From the text: as §1

[4] = tested on: barnyardgrass (Echinochloa crus-galli L.): ECHCG; test: Test Example 1 pre-emergence herbicidal activity, ECHCG
From the text: as §1

[5] = tested on: wheat (Triticum aestivum L.): TRZAX; test: Test Example 1 pre-emergence herbicidal activity, TRZAX
From the text: as §1

[6] = tested on: rice (Oryza sativa L.): ORYSA; test: Test Example 1 pre-emergence herbicidal activity, ORYSA
From the text: as §1

[7] = tested on: velvetleaf (Abutilon theophrasti): ABUTH; test: Test Example 1 pre-emergence herbicidal activity, ABUTH
From the text: as §1

[8] = tested on: corn (Zea mays L.): ZEAMX; test: Test Example 1 pre-emergence herbicidal activity, ZEAMX
From the text: as §1

[9] = tested on: green foxtail (Setaria viridis L.): SETVI; test: Test Example 1 pre-emergence herbicidal activity, SETVI
From the text: as §1

[10] = tested on: prickly sida (Sida spinosa L.): SEDSP; test: Test Example 1 pre-emergence herbicidal activity, SIDSP
From the text: as §1

Structure (SMILES)	Pre-emergence Herbicidal Activity GLXMA (growth controlling degree) ([1]; Rate 63 g a.i./ha)	Pre-emergence Herbicidal Activity DIGSP (growth controlling degree) ([2]; Rate 63 g a.i./ha)	Pre-emergence Herbicidal Activity AMARE (growth controlling degree) ([3]; Rate 63 g a.i./ha)	Pre-emergence Herbicidal Activity ECHCG (growth controlling degree) ([4]; Rate 63 g a.i./ha)	Pre-emergence Herbicidal Activity TRZAX (growth controlling degree) ([5]; Rate 63 g a.i./ha)	Pre-emergence Herbicidal Activity ORYSA (growth controlling degree) ([6]; Rate 63 g a.i./ha)	Pre-emergence Herbicidal Activity ABUTH (growth controlling degree) ([7]; Rate 63 g a.i./ha)	Pre-emergence Herbicidal Activity ZEAMX (growth controlling degree) ([8]; Rate 63 g a.i./ha)	Pre-emergence Herbicidal Activity SETVI (growth controlling degree) ([9]; Rate 63 g a.i./ha)	Pre-emergence Herbicidal Activity SIDSP (growth controlling degree) ([10]; Rate 63 g a.i./ha)	Pre-emergence Herbicidal Activity GLXMA (growth controlling degree) ([1]; Rate 125 g a.i./ha)	Pre-emergence Herbicidal Activity DIGSP (growth controlling degree) ([2]; Rate 125 g a.i./ha)	Pre-emergence Herbicidal Activity AMARE (growth controlling degree) ([3]; Rate 125 g a.i./ha)	Pre-emergence Herbicidal Activity ECHCG (growth controlling degree) ([4]; Rate 125 g a.i./ha)	Pre-emergence Herbicidal Activity TRZAX (growth controlling degree) ([5]; Rate 125 g a.i./ha)	Pre-emergence Herbicidal Activity ORYSA (growth controlling degree) ([6]; Rate 125 g a.i./ha)	Pre-emergence Herbicidal Activity ABUTH (growth controlling degree) ([7]; Rate 125 g a.i./ha)	Pre-emergence Herbicidal Activity ZEAMX (growth controlling degree) ([8]; Rate 125 g a.i./ha)	Pre-emergence Herbicidal Activity SETVI (growth controlling degree) ([9]; Rate 125 g a.i./ha)	Pre-emergence Herbicidal Activity SIDSP (growth controlling degree) ([10]; Rate 125 g a.i./ha)
COc1c(Cl)cc(F)c(-c2nn(C)c(OC(F)F)c2Cl)c1NC(=O)CCc1ccc(F)cc1 [Compound 1-267]	0%	100%	100%	70%	20%	30%	100%	0%	95%	80%	–	–	–	–	–	–	–	–	–	–
COc1c(Cl)cc(F)c(-c2nn(C)c(OC(F)F)c2Cl)c1NC(=O)C(C)Cc1ccccc1 (stereo not shown) [Compound 1-268]	0%	100%	100%	40%	20%	30%	80%	0%	80%	70%	–	–	–	–	–	–	–	–	–	–
COc1c(Cl)cc(F)c(-c2nn(C)c(OC(F)F)c2Cl)c1NC(=O)CCc1ccccc1F [Compound 1-269]	0%	100%	100%	80%	40%	40%	80%	10%	100%	100%	–	–	–	–	–	–	–	–	–	–
COc1c(Cl)cc(F)c(-c2nn(C)c(OC(F)F)c2Cl)c1NC(=O)c1ccc2ccccc2c1 [Compound 1-271]	–	–	–	–	–	–	–	–	–	–	20%	100%	100%	70%	10%	60%	40%	20%	90%	100%
